Experimental findings from patent US5731334A, “Method for treating cancer using taxoid onium salt prodrugs” (priority 1995, dated 1998) are described below.

SMILES strings stand for the structures.

One data set deals with tubulin. The experiment in a line: Tubulin polymerization-depolymerization (microtubule assembly-disassembly) assay. It is filed as biochemical, calf. The following applies: CaCl2, 10^-6 M drug, 37° C., in words.
For data set [1], the system named is M-24 metastatic melanoma cells. The experiment in a line: XTT dye binding cytotoxicity assay, M-24. The format is cell-based. The following applies: Homo sapiens, M24; M-24, melanoma-metastatic; 72 h; read-out: IC50. As for the experimental part:
(§1) All cell lines described herein were obtained from the ATCC and maintained in media formulations as recommended by the supplier. The cell lines were tested for mycoplasma contamination prior to incubation at 37° C. in 5% carbon dioxide. Normal human dermal fibroblasts, peripheral blood lymphoblasts and mammary epithelial cells were obtained from Clonogenic Cor., San Diego, Calif. and were maintained under the above incubation conditions in special media provided by the supplier.
(§2) Antiproliferative activities of the onium salts were determined using the XTT dye binding assay. Cells were harvested with trypsin/EDTA (Irvine Scientific), washed, resuspended in the appropriate medium, and counted in a hemocytometer using Trypan Blue to determine viability. Then 10^4 cells/well were added to 96 well microtiter plates and incubated for 24 hours before addition of drug at concentrations in the range of 10^-4 to 10^-13 molar by direct addition from DMSO solutions. After 72 hours, XTT binding dye was added and incubation was continued for 4 hours. The inhibition of cell proliferation was quantified using a Molecular Devices Microplate Reader. The absorbance of XTT was measured at […]. The concentration of drug which inhibited growth of cells by 50% was calculated from duplicated determinations.

The test system of another data set is SK-Mel-28 melanoma cells. The experiment in a line: XTT dye binding cytotoxicity assay, SK-Mel-28. It is filed as cell-based. The following applies: Homo sapiens; SK-Mel-28, melanoma; 72 h; read-out: IC50. As for the experimental part:
as §1, §2

In data set [2] the test system is A-549 lung carcinoma cells. As to the kind of experiment: XTT dye binding cytotoxicity assay, A-549. The format is cell-based. The note with it: Homo sapiens, A549; A-549, lung carcinoma; 72 h; read-out: IC50. As for the experimental part: as §1, §2
Background: Tetrazolium dyes change colour on reduction, which living cells bring about.

Data set [3] has as its system UCLA-P3 lung carcinoma cells. The experiment in a line: XTT dye binding cytotoxicity assay, UCLA-P3. The note with it: Homo sapiens, UCLA P-3; UCLA-P3, lung carcinoma; 72 h; read-out: IC50. It is filed as cell-based. How it is done: as §1, §2
Data set [4] deals with BT-549 breast carcinoma cells. The experiment in a line: XTT dye binding cytotoxicity assay, BT-549. The format is cell-based. The note with it: Homo sapiens; BT-549, breast carcinoma; 72 h; read-out: IC50. As for the experimental part: as §1, §2
The test system of the next data set is U-2511 CNS cancer cells. As to the kind of experiment: XTT dye binding cytotoxicity assay, U-2511. The format is cell-based. The note with it: Homo sapiens; U-2511, CNS cancer; 72 h; read-out: IC50. As for the experimental part:
as §1, §2

In data set [5] the test system is Capan 1 pancreas cancer cells. The experiment in a line: XTT dye binding cytotoxicity assay, Capan 1. The format is cell-based. The note with it: Homo sapiens; Capan 1, pancreas cancer; 72 h; read-out: IC50. As for the experimental part:
as §1, §2

The subject of data set [6] is HT-29 colon carcinoma cells. The experiment in a line: XTT dye binding cytotoxicity assay, HT-29. It is filed as cell-based. The following applies: Homo sapiens; HT-29, colon carcinoma; 72 h; read-out: IC50. How it is done: as §1, §2
The test system of data set [7] is OVCAR-3 ovarian carcinoma cells. The experiment in a line: XTT dye binding cytotoxicity assay, OVCAR-3. It is filed as cell-based. The following applies: Homo sapiens; OVCAR-3, ovarian carcinoma; 72 h; read-out: IC50. How it is done: as §1, §2
In data set [8] the test system is SIHA squamous carcinoma cells. As to the kind of experiment: XTT dye binding cytotoxicity assay, SIHA. It is filed as cell-based. The following applies: Homo sapiens; SIHA, squamous carcinoma; 72 h; read-out: IC50. As for the experimental part: as §1, §2
Data set [9] deals with SK-N-SH neuroblastoma cells. As to the kind of experiment: XTT dye binding cytotoxicity assay, SK-N-SH. It is filed as cell-based. The following applies: Homo sapiens, neuroblastoma, 72 h, read-out: IC50. As for the experimental part:
as §1, §2

Data set [10] relates to 786-0 renal cell carcinoma cells. As to the kind of experiment: XTT dye binding cytotoxicity assay, 786-0. The format is cell-based. The following applies: Homo sapiens; 786-0, renal cell carcinoma; 72 h; read-out: IC50. How it is done: as §1, §2
For data set [11], the system named is PC-3 prostate carcinoma cells. The experiment in a line: XTT dye binding cytotoxicity assay, PC-3. It is filed as cell-based. The following applies: Homo sapiens, 72 h. How it is done: as §1, §2
In data set [12] the test system is Molt-4 T-cell leukemia cells. The experiment in a line: XTT dye binding cytotoxicity assay, Molt-4. It is filed as cell-based. The following applies: Homo sapiens; Molt-4, T-cell leukemia; 72 h; read-out: IC50. As for the experimental part:
as §1, §2

For data set [13], the system named is HL-60 promyelocytic leukemia cells. The experiment in a line: XTT dye binding cytotoxicity assay, HL-60. The format is cell-based. The note with it: Homo sapiens; HL-60, promyelocytic leukemia; 72 h; read-out: IC50. How it is done:
as §1, §2

Another data set has as its system L-1210 leukemia cells. As to the kind of experiment: XTT dye binding cytotoxicity assay, L-1210. The note with it: L1210; L-1210, mouse leukemia; 72 h; read-out: IC50. The format is cell-based, mouse. How it is done:
as §1, §2

Data set [14] relates to CHO Chinese hamster ovary cells. As to the kind of experiment: XTT dye binding cytotoxicity assay, CHO. The format is cell-based. The note with it: Cricetulus griseus; CHO, Chinese hamster ovary (untransformed); 72 h; read-out: IC50. How it is done: as §1, §2
The test system of data set [15] is HMEC mammary epithelial cells. As to the kind of experiment: XTT dye binding cytotoxicity assay, HMEC. The following applies: Homo sapiens, mammary epithelial cells (untransformed), 72 h, read-out: IC50. The format is cell-based. How it is done: as §1, §2
A further data set concerns NHDF dermal fibroblast. As to the kind of experiment: XTT dye binding cytotoxicity assay, NHDF. It is filed as cell-based. The note with it: Homo sapiens, dermal fibroblast (untransformed), 72 h, read-out: IC50. As for the experimental part: as §1, §2
In data set [16] the test system is RPMI-7666 blood lymphoblasts. As to the kind of experiment: XTT dye binding cytotoxicity assay, RPMI-7666. The format is cell-based. The note with it: Homo sapiens; RPMI-7666, blood lymphoblasts (untransformed); 72 h; read-out: IC50. How it is done: as §1, §2
A further data set deals with human tumor xenografts. The experiment in a line: In vivo antitumor effect (human tumor xenografts in nude mice). In general terms: A xenograft is tissue or cells of one species grown in another, often human tumour cells in immunodeficient mice.
A short description of data set [17]: Stability in water, assay medium and storage solution. The format is physicochemical. The text has this: used and differing ultraviolet absorption maxima between the prodrug and the drug, the stability was easily assayed using UV detection. In all the ensuing studies, the only degradation products detected were the taxoids and the pyridinone that results from the hydrolysis of the onium salts. In water, these compounds show surprising stability for up to weeks depending upon the storage conditions. […] The fraction of ethyl acetated extractable material was between 18 and 23% for all onium salts and 95% for the present compounds.
FIG. 2 illustrates the results of GTP induced polymerization and calcium chloride induced depolymerization of tubulin in the presence of taxol and the 2'- and 7-MPA substituted derivatives.

A further data set has as its system tumor cell lines. The experiment in a line: Cytotoxicity, summary over tumor cell lines (XTT). It is filed as cell-based, human and murine.
Data set [18] has as its system PC-3 prostate carcinoma tumor xenograft. The experiment in a line: PC-3 prostate tumor xenograft in nude mice.
A short description of data set [19]: Toxicity and survival in vivo (tumor bearing nude mice).
The nature of data set [20]: Plasma stability and prodrug reversion (ethyl acetate extraction, HPLC). The note with it: human, plasma.
Data set [21] is described as follows: Comparative toxicities (lethality) in mice.

Experimental for tumor cell lines: Antiproliferative activities of the onium salts were determined using the XTT dye binding assay. Cells were harvested with trypsin/EDTA (Irvine Scientific), washed, resuspended in the appropriate medium, and counted in a hemocytometer using Trypan Blue to determine viability. […] After 72 hours, XTT binding dye was added and incubation was continued for 4 hours. The inhibition of cell proliferation was quantified using a Molecular Devices Microplate Reader. […] The concentration of drug which inhibited growth of cells by 50% was calculated from duplicated determinations.

`CC(=O)O[C@H]1C(=O)[C@@]2(C)[C@H]([C@H](OC(=O)c3ccsc3)[C@]3(O)C[C@H](OC(=O)[C@H](O)[C@@H](NC(=O)c4ccccc4)c4ccccc4)C(C)=C1C3(C)C)[C@]1(OC(C)=O)CO[C@@H]1C[C@@H]2O` [C-2-substituted thiophene derivative]: in the data set with tubulin, the “inhibition of calcium chloride induced depolymerization of microtubules” value is given as “inhibited depolymerization similar to taxol”.
Regarding `CC(=O)O[C@H]1C(=O)[C@]2(C)[C@@H](Oc3cccc[n+]3C)C[C@H]3OC[C@@]3(OC(C)=O)[C@H]2[C@H](OC(=O)c2ccccc2)[C@]2(O)C[C@H](OC(=O)[C@H](O)[C@@H](NC(=O)c3ccccc3)c3ccccc3)C(C)=C1C2(C)C` [Compound 3], the IC50 in data set [1] came to 0.62 nM; in the data set on SK-Mel-28 melanoma cells it was 702 nM; in [2], 42.5 nM; in data set [3], 12.8 nM; in data set [4], 140 nM; in the data set on U-2511 CNS cancer cells, 170 nM. Also, the IC50 in data set [5] came out at 34.5 nM; in [6], 35.3 nM; in [7], 84.2 nM; in [8], 8.79 nM; in data set [9] it was 19.6 nM; in data set [10] it was 454 nM. Also, the IC50 in data set [11] worked out at 70.7 nM; in [12], 9.94 nM; in data set [13], 5.85 nM; in the data set on L-1210 leukemia cells, 178 nM; in [14], 612 nM; in [15], 81 nM. The half-maximal inhibitory concentration (IC50) with NHDF dermal fibroblast was found to be 85.5 nM; in data set [16], 123 nM. Also, the “inhibition of calcium chloride induced depolymerization of microtubules” value with tubulin is “as effective as taxol in inhibiting calcium induced microtubule disassembly”; in the data set on tubulin (listed as 7-MPA salt), “essentially complete inhibition of depolymerization”; in the data set with tubulin (listed as taxol-7-MPA), “suppressed by taxol and taxol-7-MPA”. Besides, the “in vivo antitumor efficacy in words” value in the data set on human tumor xenografts is given as “completely failed to inhibit the growth of these tumors in nude mice”. Further, in [17] (HPLC analysis), the “stability under the assembly-disassembly conditions” value was “completely stable”. In addition, the cytotoxicity in words entry with tumor cell lines is on record as “cytotoxicities comparable to taxol on human tumor cell lines”. In addition, the “antitumor activity, PC-3” value in data set [18] (1.0 mM, 400 μL i.p., established tumors) is recorded as “essentially no antitumor activity”. In addition, the “mice surviving treatment, PC-3” value in data set [18] (in vivo) is “all of the mice given either the 2'- or 7-isomers survived”. Besides, the Toxicity result in data set [19] (Table II, in vivo) was “low”. For the same compound, the “% survival” value in data set [19] (at end of experiments) came to 100%. The half-life in [20] was determined as 3 h. Also, in data set [20], the recovery was found to be 20%.
For the compound `CC(=O)O[C@@]12CO[C@@H]1C[C@H](O)[C@@]1(C)C(=O)[C@H](O)C3=C(C)[C@@H](OC(=O)[C@H](O)[C@@H](NC(=O)OC(C)(C)C)c4ccccc4)C[C@@](O)([C@@H](OC(=O)c4ccccc4)[C@H]21)C3(C)C` [Compound 5, N-debenzoyl-N-tert-butoxycarbonyl-10-deacetyl Taxol, reference compound], the concentration for half-maximal inhibition (IC50) in data set [1] was 0.017 nM; in the data set with SK-Mel-28 melanoma cells, 614 nM; in [2] it was 0.8 nM; in data set [3], 0.12 nM; in the data set on U-2511 CNS cancer cells, 21 nM; in data set [5] it was 0.011 nM. For the same compound, the IC50 in [6] is 0.84 nM; in [7], 0.11 nM; in data set [8], 1.56 nM; in [9] it was 0.65 nM; in data set [10] it was 41.5 nM; in [13] it was 0.035 nM. Besides, the IC50 worked out at 0.59 nM in the data set with L-1210 leukemia cells; 80 nM in data set [14]; 32.9 nM in [15]; 65 nM with NHDF dermal fibroblast; 71.2 nM in data set [16]. Also, in data set [21] (conventional formulation, relative to taxol), the “50% lethality and toxicities, in words” value is 50% lethality and toxicities at generally lower dosages as compared to taxol.
Regarding `CC(=O)O[C@@]12CO[C@@H]1C[C@H](O)[C@@]1(C)C(=O)[C@H](O)C3=C(C)[C@@H](OC(=O)[C@H](Oc4cccc[n+]4C)[C@@H](NC(=O)OC(C)(C)C)c4ccccc4)C[C@@](O)([C@@H](OC(=O)c4ccccc4)[C@H]21)C3(C)C` [Compound 6], the IC50 in the data set on SK-Mel-28 melanoma cells amounted to 68.2 nM; in data set [2], 0.72 nM; in [3], 19.9 nM; in data set [4] it was 0.065 nM; with U-2511 CNS cancer cells, 0.61 nM; in [5] it was 0.59 nM. The IC50 turned out to be 3.08 nM in [6]; 81.8 nM in [7]; 4.12 nM in [8]; 7.34 nM in data set [9]; 0.56 nM in [10]; 0.89 nM in [13]. In addition, the IC50 in the data set on L-1210 leukemia cells came out at 0.019 nM; in data set [14], 292 nM; in [15] it was 56 nM; in the data set with NHDF dermal fibroblast it was 1.59 nM; in [16], 596 nM. The storage stability result in data set [17] (1-2% Tween #80 or Tween #20 with or without ethyl alcohol) was “stable and may stored without significant loss”. In [21] (mouse, in vivo), the Toxicity result is given as “minimal toxicity”. In [21] (mouse, in vivo), the lethality entry is reported as “no lethality”. Moreover, the half-life in data set [20] stood at 0.015 h. Besides, the recovery in [20] turned out to be 18%.

A word on the IC50: it is the concentration that inhibits the measured activity by half. Usually half-life stands for the time in which the quantity being followed falls by half.
